Test system: L5178Y tk+/- mouse lymphoma cells
Experiment: Mutagenic activity at the thymidine kinase (tk) locus
Type: cell-based
Settings: compared to vehicle
Protocol: Because some nucleobase analogs exert mutagenic activities due to their misrecognition of wrong bases, mutagenic activity of 6-HAP was determined by detecting mutagenic events at the thymidine kinase (tk) locus of L5178Y tk^+/− mouse lymphoma cells.

## COS(C)(=O)=O [methyl methanesulfonate, reference compound]
  mutagenic activity, mutation frequency at tk locus: did induce a high mutation frequency

From patent US12427151B2, “Compositions and method of treating cancer” (The Regents of the University of California, priority 2017, dated 2025)
